Entries after “also recorded” stand apart in the source; their conditions may differ.
Tests used:
male CD-1 mice = experiment: murine Forced Swim Test (FST), a mouse model of depression; assay type: in vivo; details: intraperitoneal; for effect on length of time spent immobile / depression, in words: doses per Table 1, ANOVA followed by T-test, versus vehicle; for length of time the mice spent immobile (average time immobile): one hour after dosing, immobility within the last 4 minutes of 6 minutes, mg/kg per Table 1: desipramine 10, entacapone 30, fluoxetine 18, venlafaxine 10, amitriptyline 10, droxidopa 400, carbidopa 20
Procedure: The effect of droxidopa, alone or in combination with other drugs, in the treatment of depression was evaluated using the murine Forced Swim Test (FST), a mouse model of depression commonly used to evaluate antidepressive drugs. Depression (i.e., “learned helplessness” as evaluated by the FST model) was measured using the method of Porsolt et al., Arch. Int. Pharmacodyn. (1977), 229: 327-336. Briefly, male CD-1 mice weighing 22 g (±2 g) were fasted overnight prior to testing. The mice were randomized into 11 groups of 10 mice each. Mice in each group were treated with the vehicle alone, a drug, or a drug composition as outlined in Table 1 and returned to their respective groups.
In Table 1, the vehicle—2% TWEEN® 80 (i.e., polysorbate 80)—was included in all test compositions. One hour after dosing, the test mice were placed in a 1 liter volume glass beaker (height: 14.5 cm, diameter: 10.5 cm) containing water 6 cm in height at room temperature (22 to 24° C.) for 6 minutes. The duration of animal immobility within the last 4 minutes was then recorded. A mouse was judged to be immobile when it ceased struggling and remained floating in the water making only those movements necessary to keep its head above water. Data were analyzed by ANOVA for significant differences in group means, followed by T-test to distinguish statistically significant groups as appropriate.

MAO-A = target: T1, MAO-A (Homo sapiens, UniProt P21397); details: MAO-A versus MAO-B; cited from earlier work
T1 sequence (P21397 1-527): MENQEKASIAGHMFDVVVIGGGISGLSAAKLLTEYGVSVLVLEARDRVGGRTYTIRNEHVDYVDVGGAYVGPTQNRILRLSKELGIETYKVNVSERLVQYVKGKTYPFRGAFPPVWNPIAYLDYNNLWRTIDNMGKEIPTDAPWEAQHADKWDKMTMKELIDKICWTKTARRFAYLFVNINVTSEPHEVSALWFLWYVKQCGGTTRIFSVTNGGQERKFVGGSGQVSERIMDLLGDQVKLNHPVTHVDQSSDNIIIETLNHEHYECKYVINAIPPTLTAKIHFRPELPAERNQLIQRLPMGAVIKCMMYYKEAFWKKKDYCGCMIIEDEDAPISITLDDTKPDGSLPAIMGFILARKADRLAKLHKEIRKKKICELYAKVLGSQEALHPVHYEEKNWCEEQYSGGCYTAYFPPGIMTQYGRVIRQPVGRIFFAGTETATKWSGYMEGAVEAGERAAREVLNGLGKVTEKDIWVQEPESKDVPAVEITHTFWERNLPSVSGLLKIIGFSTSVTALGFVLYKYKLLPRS

Question: What does the source list for CN(C)CCC=C1c2ccccc2CCc2ccccc21 [amitriptyline]?
Answer: effect on length of time spent immobile / depression, in words (male CD-1 mice): significant decrease; length of time the mice spent immobile (average time immobile) (male CD-1 mice): 60.0 s

Question: For CNCCCN1c2ccccc2CCc2ccccc21 [desipramine], which “effect on length of time spent immobile / depression, in words” value (male CD-1 mice) is on record?
Answer: Its value is “did not significantly decrease; also recorded: failed to decrease depression”.

Question: And the “length of time the mice spent immobile (average time immobile)” value (shortened to “length of time the mice spent immobile”) (male CD-1 mice)?
Answer: The value was 136.4 s.

Question: For CCN(CC)C(=O)/C(C#N)=C/c1cc(O)c(O)c([N+](=O)[O-])c1 [entacapone, (E)-2-cyano-N,N-diethyl-3-(3,4-dihydroxy-5-nitrophenyl)propenamide], which “effect on length of time spent immobile / depression, in words” value (male CD-1 mice) is on record?
Answer: Its value is “did not significantly decrease”.

Question: What about the “length of time the mice spent immobile” value (male CD-1 mice) of the same compound?
Answer: Its value is 129.9 s.

Question: With CNCCC(Oc1ccc(C(F)(F)F)cc1)c1ccccc1 (centres unmarked) [fluoxetine] as the compound, how does the “effect on length of time spent immobile / depression, in words” value (male CD-1 mice) read?
Answer: Its value is “did not significantly decrease; also recorded: failed to decrease depression”.

Question: What about the “length of time the mice spent immobile” value (male CD-1 mice) of the same compound?
Answer: The value was 158.2 s.

Question: Which “selectivity for MAO-A than MAO-B” value (MAO-A) does the source give for O=C(NCCN1CCOCC1)c1ccc(Cl)cc1 [moclobemide] here?
Answer: The value was “approximately three times more selective for MAO-A than MAO-B”.

Question: Which results are given for COc1ccc(C(CN(C)C)C2(O)CCCCC2)cc1 (centres unmarked) [venlafaxine]?
Answer: effect on length of time spent immobile / depression, in words (male CD-1 mice): did not significantly decrease; also recorded: failed to decrease depression; length of time the mice spent immobile (average time immobile) (male CD-1 mice): 117.5 s

From patent US8383681B2, “Droxidopa and pharmaceutical composition thereof for the treatment of mood disorders, sleep disorders or attention deficit disorders” (Chelsea Therapeutics, Inc., priority 2008, dated 2013)
